According to patent publication US12459922B2 (Gilead Sciences, Inc., priority 2022, dated 2025):

These molecules were tested on endogenous cellular STAT1 (phosphorylated at Tyr701) in NCI-H1373 cells (assay: Phospho-STAT1 (Tyr701) LANCE Ultra TR-FRET Detection Assay). Conditions: Homo sapiens, NCI-H1373, 48 h, phospho-STAT1 (Tyr701) induction, read-out: NH1373 pSTAT1 EC50.
Assay type: cell-based

Going from COc1cnc(-c2cc3ccn(CCC[C@H](C)Nc4cn[nH]c(=O)c4C(F)(F)F)c(=O)c3cc2F)nc1NCC(F)F [Example 158, 6-[4-(2,2-difluoroethylamino)-5-methoxy-pyrimidin-2-yl]-7-fluoro-2-[(4S)-4-[[6-oxo-5-(trifluoromethyl)-1H-pyridazin-4-yl]amino]pentyl]isoquinolin-1-one] to COc1cnc(-c2cc3ncn(CCC[C@H](C)Nc4cn[nH]c(=O)c4C(F)(F)F)c(=O)c3cc2F)nc1NCC(F)F [Example 159, 7-[4-(2,2-difluoroethylamino)-5-methoxy-pyrimidin-2-yl]-6-fluoro-3-[(4S)-4-[[6-oxo-5-(trifluoromethyl)-1H-pyridazin-4-yl]amino]pentyl]quinazolin-4-one], the EC50 rises from 109 nM to 283 nM (2.6-fold).

Going from N#CC[C@@H](CCCn1ccc2cc(-c3ncc(C(F)(F)F)cn3)c(F)cc2c1=O)Nc1cn[nH]c(=O)c1C(F)(F)F [Example 160, (3R)-6-[7-fluoro-1-oxo-6-[5-(trifluoromethyl)pyrimidin-2-yl]-2-isoquinolyl]-3-[[6-oxo-5-(trifluoromethyl)-1H-pyridazin-4-yl]amino]hexanenitrile] to N#C[C@@H](CCCn1ccc2cc(-c3ncc(C(F)(F)F)cn3)c(F)cc2c1=O)Nc1cn[nH]c(=O)c1C(F)(F)F [Example 162, (2R)-5-[7-fluoro-1-oxo-6-[5-(trifluoromethyl)pyrimidin-2-yl]-2-isoquinolyl]-2-[[6-oxo-5-(trifluoromethyl)-1H-pyridazin-4-yl]amino]pentanenitrile], the EC50 rises from 219 nM to 662 nM (3-fold). The first is the more potent here.

Going from CC#C[C@@H](CCCn1ccc2cc(-c3ncc(C(F)(F)F)cn3)c(F)c(F)c2c1=O)Nc1cn[nH]c(=O)c1C(F)(F)F [Example 161, 7,8-difluoro-2-[(4R)-4-[[6-oxo-5-(trifluoromethyl)-1H-pyridazin-4-yl]amino]hept-5-ynyl]-6-[5-(trifluoromethyl)pyrimidin-2-yl]isoquinolin-1-one] to C#C[C@@H](CCCn1ccc2cc(-c3ncc(C(F)(F)F)cn3)c(F)cc2c1=O)Nc1cn[nH]c(=O)c1C(F)(F)F [Example 170, 7-fluoro-2-[(4R)-4-[[6-oxo-5-(trifluoromethyl)-1H-pyridazin-4-yl]amino]hex-5-ynyl]-6-[5-(trifluoromethyl)pyrimidin-2-yl]isoquinolin-1-one], the EC50 rises from 28.7 nM to 195 nM (6.8-fold).

Going from O=c1[nH]ncc(N[C@@H](CO)CCCn2cnc3cc(-c4ncc(C(F)(F)F)cn4)c(F)cc3c2=O)c1C(F)(F)F [Example 164, 6-fluoro-3-[(4R)-5-hydroxy-4-[[6-oxo-5-(trifluoromethyl)-1H-pyridazin-4-yl]amino]pentyl]-7-[5-(trifluoromethyl)pyrimidin-2-yl]quinazolin-4-one] to O=c1[nH]ncc(N[C@@H](CO)CCCn2ccc3cc(-c4ncc(Cl)cn4)c(F)cc3c2=O)c1C(F)(F)F [Example 166, 6-(5-chloropyrimidin-2-yl)-7-fluoro-2-[(4R)-5-hydroxy-4-[[6-oxo-5-(trifluoromethyl)-1H-pyridazin-4-yl]amino]pentyl]isoquinolin-1-one], the EC50 falls from 219 nM to 128 nM (1.7-fold). The second is the more potent here.

Compared with O=c1[nH]ncc(N[C@@H](CO)CCCn2ccc3cc(-c4ncc(C(F)F)cn4)c(F)cc3c2=O)c1C(F)(F)F [Example 165], Nc1nc(-c2cc3ccn(CCC[C@H](CO)Nc4cn[nH]c(=O)c4C(F)(F)F)c(=O)c3cc2F)ccc1C(F)(F)F [Example 167, 6-[6-amino-5-(trifluoromethyl)pyridin-2-yl]-7-fluoro-2-[(4R)-5-hydroxy-4-[[6-oxo-5-(trifluoromethyl)-1H-pyridazin-4-yl]amino]pentyl]isoquinolin-1-one] is 1.5-fold lower in EC50: 159 nM for the first, 103 nM for the second.

Cc1nnc([C@@H](CCCn2ccc3cc(-c4ncc(C(F)(F)F)cn4)c(F)cc3c2=O)Nc2cn[nH]c(=O)c2C(F)(F)F)o1 [Example 169, 7-fluoro-2-[(4R)-4-(5-methyl-1,3,4-oxadiazol-2-yl)-4-[[6-oxo-5-(trifluoromethyl)-1H-pyridazin-4-yl]amino]butyl]-6-[5-(trifluoromethyl)pyrimidin-2-yl]isoquinolin-1-one] gave an EC50 of 61.9 nM.
